# Assay results published in US20030211589A1, “Short peptides from the b4 and b5 regions kinases which selectively modulate protein activity” (priority 2002, published 2003).
# The star is where a group is joined. Stearoyl = CCCCCCCCCCCCCCCCCC(=O)*
# Experiments:
# [1] = tested on: Human Fetal lung fibroblasts (HFL-1); test: HFL-1 fibroblast cell proliferation (methylene blue staining); assay type: cell-based; conditions: peptide 0-10 μM, 48 hours, vs control without peptide; FIG. 4
# Experimental: Human Fetal lung fibroblasts (HFL-1) were obtained from the American Type Culture Collection (Manassas, Va.).
# Culture medium was prepared from F-12K (Gibco), penicillin/streptomycin/glutamine (penicillin—100U/ml; streptomycin—100U/ml; glutamine—2 mM), 0.5% fetal calf serum and […] ascorbic acid. A suspension of HFL-1 cells at 2.22×10^5 cell/ml was prepared in the above described culture medium.
# A series of B4-5 peptide stock solution was prepared by diluting a […] solution of the B4-5 peptide in 100% DMSO, with phosphate buffered saline (PBS) containing 0.1% BSA. The concentration of B4-5 peptide in each stock solution was adjusted to […] the desired concentration of the B4-5 peptide in the assay mixture. Twenty μl of peptide stock solution were placed at the bottom of each well in a 96-well flat bottom tissue culture plate, six replications for each concentration. BSA solution containing 1% DMSO with no added peptide served as a control. 180 μl of the HFL-1 cell suspension were added to each well (40,000 cells per well). The cells were incubated with the peptide (final concentrations of 0-10μM), for 48 hours at 37° C. in a 5% CO2 humidified incubator. At the end of the incubation the cells were fixed with buffered formaline (200 μl/well) for 1 h at room temperature. […] The O.D. was read at 595 nm to determine the number of cells per well. […]
# [2] = tested on: fracture site on a rabbit ulna; test: Rabbit ulnar osteotomy model of bone remodeling (histology); assay type: in vivo, New Zealand White rabbits; conditions: peptide mixture 0.3 cm^3 applied locally to fractured area, 4 weeks, vs untreated osteotomy; FIG. 6
# Experimental: The rabbit ulnar osteotomy models described by Bouxsein et al., at the 45th Annual Meeting, Orthopedic Research Society, Anaheim, Calif. (1999), were employed to assess the ability of the B4-5 peptide K099B901 (ALK4-derived peptide) to accelerate bone remodeling.
# Bilateral mid-ulnar osteotomies were made in the front limbs of male New Zealand White rabbits using an oscillating saw. The preparation of the peptide was as follows: 40 mg of peptide were dissolved in 200 μl of DMSO (Sigma) and 800 μl of double distilled water. The solution was mixed with 100 mg of methyl cellulose (Sigma) and 100 mg of carboxymethyl cellulose (Serva).
# The K099B901 peptide mixture (0.3 cm^3) was locally applied to the fractured area. An untreated osteotomy served as a control. Radiographs of the ulna were taking weekly for 4 weeks. The rabbits were then sacrificed and the fractured areas were taken for bone histology. The bone tissue was fixated in 4% formaldehide and then soaked in 10% formic acid for decalcification. The decalcified tissue was imbedded in paraffin wax, serially sectioned at 5μ and stained with indigo-carmine.
# [3] = tested on: HNK-1-positive neural crest cells from neural primordia explants; test: Emigration of neural crest cells from neural primordia explants (HNK-1 immunostaining); assay type: cell-based, quail; conditions: 5 μM peptide, 24 hours, serum-free medium, compared to control; FIG. 5
# From the text: The procedure for explants of neural primordia is described in greater detail in Sela-Donenfeld and Kalcheim (Development, 1999, in press), the teaching of which are incorporated herein by reference.
# The trunk region of 16 somite-old quail embryos was separately sectioned at the level of the segmental plate plus the last 2 epithelial somite pairs. Neural primordia consisting of the neural tube and premigratory neural crest cells were isolated from adjacent tissues with 25% pancreatin in PBS, transferred to PBS supplemented with 5% newborn calf serum to stop enzymatic activity and washed in serum-free culture medium prior to explantation. The neural primordia were then explanted onto multi-well chamber slides that were pre-coated with fibronectin (50 μg/ml) for 1 hour. The neural primordia were cultured in 50 μl serum-free SFRI medium (Berganton, France) in the absence or presence of B4-5 peptide—K099B901, in a final concentration of 5 μM and incubated in a humid chamber for 24 hours. At the end of the incubation, the primordia were gently washed with PBS and fixed with Bouin's fluid, washed 3 times with PBS and immunostained with 50 μl of monoclonal antibodies against HNK-1 for 1 h at room temperature. Excess HNK-1 antibodies were washed 3 times with PBS. The samples were further incubated with 50 μl of a secondary fluorescent antibody, GAM-FITC for 1 h at room temperature. […]
substance,measurement,setting,value
"K099B901: B4-5 peptide K099B901 (ALK4-derived peptide), SEQ ID NO. 30, FIG. 3 (Stearoyl-GDNKDNGTWT-NH2; SMILES CCCCCCCCCCCCCCCCCC(=O)NCC(=O)N[C@@H](CC(=O)O)C(=O)N[C@@H](CC(N)=O)C(=O)N[C@@H](CCCCN)C(=O)N[C@@H](CC(=O)O)C(=O)N[C@@H](CC(N)=O)C(=O)NCC(=O)N[C@H](C(=O)N[C@@H](Cc1c[nH]c2ccccc12)C(=O)N[C@H](C(N)=O)[C@@H](C)O)[C@@H](C)O)",stimulation of cell proliferation of the HFL-1 cells,[1],exceeding 2 ×
same,tissue formed at the fracture site (bone histology),[2],a bone like bone-tissue was formed leading to a genuine regeneration
same,outgrowth of HNK-1-positive neural crest cells from the explant,[3],remarkable outgrowth of HNK-1—positive neural crest cells from the explant
